This note sets out measurements from patent US20200392158A1, “INHIBITORS OF LEUCINE RICH REPEAT KINASE 2” (GLAXOSMITHKLINE INTELLECTUAL PROPERTY DEVELOPMENT LIMITED, priority 2017, published 2020).

Experiment [1] has as its target T1, full length G2019 human LRRK2 (Homo sapiens, UniProt Q5S007, R50H).
T1 construct: made in house; host or cells: HEK293 6E cells transduced with BacMam virus (virus generated in Sf9 cells)
Put plainly: Full length G2019 human LRRK2 inhibition mass spectrometry assay. The following applies: LRRKtide to phospho-LRRKtide conversion, RapidFire MS, 2 mM ATP. It counts as biochemical. The essentials: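 Purified full-length Flag-tagged G2019 LRRK2, ~25 nM, with 25 μM LRRKtide and 2 mM ATP in 50 mM Hepes pH 7.2, 10 mM MgCl2, 150 mM NaCl, 1 h at room temperature. Quenched with formic acid; phospho- and unphosphorylated LRRKtide measured by RapidFire MS. pIC50 from 4-parameter fit of % conversion, 11 points, top 100 μM.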

For experiment [2], the target named is T2, LRRK2 kinase in SH-SY5Y cells over-expressing recombinant full length LRRK2 (Homo sapiens, UniProt Q5S007).
T2 construct: A BacMam virus expressing full length recombinant LRRK2 was purchased from Invitrogen; host or cells: SH-SY5Y human neuroblastoma cells transduced with BacMam LRRK2 virus
T2 sequence (Q5S007 whole entry): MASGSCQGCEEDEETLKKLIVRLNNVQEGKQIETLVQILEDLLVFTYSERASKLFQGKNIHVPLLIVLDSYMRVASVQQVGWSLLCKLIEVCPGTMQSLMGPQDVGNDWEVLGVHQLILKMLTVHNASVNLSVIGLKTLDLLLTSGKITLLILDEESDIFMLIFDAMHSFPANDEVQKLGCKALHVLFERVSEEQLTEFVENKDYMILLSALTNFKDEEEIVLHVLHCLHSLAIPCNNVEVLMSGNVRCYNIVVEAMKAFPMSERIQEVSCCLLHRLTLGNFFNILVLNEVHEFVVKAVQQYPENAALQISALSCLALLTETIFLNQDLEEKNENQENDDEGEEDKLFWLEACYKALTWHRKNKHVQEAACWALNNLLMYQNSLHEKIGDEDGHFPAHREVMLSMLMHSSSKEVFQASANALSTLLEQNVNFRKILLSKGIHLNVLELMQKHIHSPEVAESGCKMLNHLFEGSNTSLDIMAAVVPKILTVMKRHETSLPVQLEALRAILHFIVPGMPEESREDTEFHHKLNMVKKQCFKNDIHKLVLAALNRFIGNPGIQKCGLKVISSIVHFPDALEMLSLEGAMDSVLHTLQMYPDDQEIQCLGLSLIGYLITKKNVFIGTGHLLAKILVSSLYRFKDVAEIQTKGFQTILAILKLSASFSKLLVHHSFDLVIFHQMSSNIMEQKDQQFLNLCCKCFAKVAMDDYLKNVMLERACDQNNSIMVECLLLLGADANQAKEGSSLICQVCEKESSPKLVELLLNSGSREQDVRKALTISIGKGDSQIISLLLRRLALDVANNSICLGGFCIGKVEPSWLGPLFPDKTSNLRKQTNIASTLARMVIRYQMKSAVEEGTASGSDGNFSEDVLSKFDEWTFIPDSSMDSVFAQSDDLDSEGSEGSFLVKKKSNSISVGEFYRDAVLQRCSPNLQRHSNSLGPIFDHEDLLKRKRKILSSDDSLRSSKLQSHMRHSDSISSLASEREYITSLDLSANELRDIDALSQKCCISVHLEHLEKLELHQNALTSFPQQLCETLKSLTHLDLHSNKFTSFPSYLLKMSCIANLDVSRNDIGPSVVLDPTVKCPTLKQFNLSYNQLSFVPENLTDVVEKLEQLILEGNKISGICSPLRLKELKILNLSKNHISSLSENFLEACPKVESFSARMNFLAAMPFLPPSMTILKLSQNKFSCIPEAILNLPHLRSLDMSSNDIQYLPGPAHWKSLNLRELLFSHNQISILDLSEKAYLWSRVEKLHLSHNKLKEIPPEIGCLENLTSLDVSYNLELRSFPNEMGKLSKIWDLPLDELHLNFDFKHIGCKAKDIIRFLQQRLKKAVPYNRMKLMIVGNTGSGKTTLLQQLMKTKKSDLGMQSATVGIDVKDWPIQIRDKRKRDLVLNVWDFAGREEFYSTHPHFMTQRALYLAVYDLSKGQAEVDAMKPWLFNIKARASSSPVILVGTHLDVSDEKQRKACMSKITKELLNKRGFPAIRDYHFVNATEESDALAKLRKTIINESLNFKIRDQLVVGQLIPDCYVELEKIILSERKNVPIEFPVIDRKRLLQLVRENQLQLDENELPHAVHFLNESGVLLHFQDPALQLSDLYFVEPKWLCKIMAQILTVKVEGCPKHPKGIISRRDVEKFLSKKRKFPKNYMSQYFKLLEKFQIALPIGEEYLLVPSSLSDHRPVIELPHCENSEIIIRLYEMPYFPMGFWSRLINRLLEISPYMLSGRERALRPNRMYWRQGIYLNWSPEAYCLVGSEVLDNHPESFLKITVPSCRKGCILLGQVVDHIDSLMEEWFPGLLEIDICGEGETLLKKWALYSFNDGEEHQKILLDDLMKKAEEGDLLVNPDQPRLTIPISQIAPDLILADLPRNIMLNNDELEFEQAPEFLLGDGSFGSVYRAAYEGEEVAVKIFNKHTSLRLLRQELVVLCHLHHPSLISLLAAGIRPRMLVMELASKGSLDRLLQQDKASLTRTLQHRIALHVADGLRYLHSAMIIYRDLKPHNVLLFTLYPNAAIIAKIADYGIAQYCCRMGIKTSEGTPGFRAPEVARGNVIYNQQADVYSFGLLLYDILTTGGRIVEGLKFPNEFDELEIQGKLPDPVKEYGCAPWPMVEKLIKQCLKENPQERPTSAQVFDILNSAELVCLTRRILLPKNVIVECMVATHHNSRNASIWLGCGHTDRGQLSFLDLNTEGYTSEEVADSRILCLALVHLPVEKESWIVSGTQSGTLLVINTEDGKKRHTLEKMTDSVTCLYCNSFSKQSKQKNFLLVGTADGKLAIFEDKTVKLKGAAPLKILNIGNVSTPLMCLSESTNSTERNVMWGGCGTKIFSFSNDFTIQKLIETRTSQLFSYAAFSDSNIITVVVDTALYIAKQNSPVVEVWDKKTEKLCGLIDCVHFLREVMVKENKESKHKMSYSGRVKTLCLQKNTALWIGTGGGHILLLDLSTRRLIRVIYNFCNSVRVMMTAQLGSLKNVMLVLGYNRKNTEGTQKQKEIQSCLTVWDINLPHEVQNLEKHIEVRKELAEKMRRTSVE
The experiment is described as follows: Recombinant cellular LRRK2 AlphaScreen assay (LRRK2 Ser935 phosphorylation). The following applies: 60 min. The experiment is classed as cell-based. The essentials:
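SH-SY5Y cells transduced with BacMam full-length LRRK2 (MOI 50) for 24 h, then treated 60 min at 37 °C with compound (11-point 1:4 series, top 10 uM, 0.1% DMSO). Lysates probed by AlphaScreen for pSer935 vs total LRRK2; values fitted to a sigmoidal dose-response model.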
A general note: Bead proximity is the source of the signal in Alpha formats.

T1 sequence (Q5S007 with tags, fused parts or gaps R50H): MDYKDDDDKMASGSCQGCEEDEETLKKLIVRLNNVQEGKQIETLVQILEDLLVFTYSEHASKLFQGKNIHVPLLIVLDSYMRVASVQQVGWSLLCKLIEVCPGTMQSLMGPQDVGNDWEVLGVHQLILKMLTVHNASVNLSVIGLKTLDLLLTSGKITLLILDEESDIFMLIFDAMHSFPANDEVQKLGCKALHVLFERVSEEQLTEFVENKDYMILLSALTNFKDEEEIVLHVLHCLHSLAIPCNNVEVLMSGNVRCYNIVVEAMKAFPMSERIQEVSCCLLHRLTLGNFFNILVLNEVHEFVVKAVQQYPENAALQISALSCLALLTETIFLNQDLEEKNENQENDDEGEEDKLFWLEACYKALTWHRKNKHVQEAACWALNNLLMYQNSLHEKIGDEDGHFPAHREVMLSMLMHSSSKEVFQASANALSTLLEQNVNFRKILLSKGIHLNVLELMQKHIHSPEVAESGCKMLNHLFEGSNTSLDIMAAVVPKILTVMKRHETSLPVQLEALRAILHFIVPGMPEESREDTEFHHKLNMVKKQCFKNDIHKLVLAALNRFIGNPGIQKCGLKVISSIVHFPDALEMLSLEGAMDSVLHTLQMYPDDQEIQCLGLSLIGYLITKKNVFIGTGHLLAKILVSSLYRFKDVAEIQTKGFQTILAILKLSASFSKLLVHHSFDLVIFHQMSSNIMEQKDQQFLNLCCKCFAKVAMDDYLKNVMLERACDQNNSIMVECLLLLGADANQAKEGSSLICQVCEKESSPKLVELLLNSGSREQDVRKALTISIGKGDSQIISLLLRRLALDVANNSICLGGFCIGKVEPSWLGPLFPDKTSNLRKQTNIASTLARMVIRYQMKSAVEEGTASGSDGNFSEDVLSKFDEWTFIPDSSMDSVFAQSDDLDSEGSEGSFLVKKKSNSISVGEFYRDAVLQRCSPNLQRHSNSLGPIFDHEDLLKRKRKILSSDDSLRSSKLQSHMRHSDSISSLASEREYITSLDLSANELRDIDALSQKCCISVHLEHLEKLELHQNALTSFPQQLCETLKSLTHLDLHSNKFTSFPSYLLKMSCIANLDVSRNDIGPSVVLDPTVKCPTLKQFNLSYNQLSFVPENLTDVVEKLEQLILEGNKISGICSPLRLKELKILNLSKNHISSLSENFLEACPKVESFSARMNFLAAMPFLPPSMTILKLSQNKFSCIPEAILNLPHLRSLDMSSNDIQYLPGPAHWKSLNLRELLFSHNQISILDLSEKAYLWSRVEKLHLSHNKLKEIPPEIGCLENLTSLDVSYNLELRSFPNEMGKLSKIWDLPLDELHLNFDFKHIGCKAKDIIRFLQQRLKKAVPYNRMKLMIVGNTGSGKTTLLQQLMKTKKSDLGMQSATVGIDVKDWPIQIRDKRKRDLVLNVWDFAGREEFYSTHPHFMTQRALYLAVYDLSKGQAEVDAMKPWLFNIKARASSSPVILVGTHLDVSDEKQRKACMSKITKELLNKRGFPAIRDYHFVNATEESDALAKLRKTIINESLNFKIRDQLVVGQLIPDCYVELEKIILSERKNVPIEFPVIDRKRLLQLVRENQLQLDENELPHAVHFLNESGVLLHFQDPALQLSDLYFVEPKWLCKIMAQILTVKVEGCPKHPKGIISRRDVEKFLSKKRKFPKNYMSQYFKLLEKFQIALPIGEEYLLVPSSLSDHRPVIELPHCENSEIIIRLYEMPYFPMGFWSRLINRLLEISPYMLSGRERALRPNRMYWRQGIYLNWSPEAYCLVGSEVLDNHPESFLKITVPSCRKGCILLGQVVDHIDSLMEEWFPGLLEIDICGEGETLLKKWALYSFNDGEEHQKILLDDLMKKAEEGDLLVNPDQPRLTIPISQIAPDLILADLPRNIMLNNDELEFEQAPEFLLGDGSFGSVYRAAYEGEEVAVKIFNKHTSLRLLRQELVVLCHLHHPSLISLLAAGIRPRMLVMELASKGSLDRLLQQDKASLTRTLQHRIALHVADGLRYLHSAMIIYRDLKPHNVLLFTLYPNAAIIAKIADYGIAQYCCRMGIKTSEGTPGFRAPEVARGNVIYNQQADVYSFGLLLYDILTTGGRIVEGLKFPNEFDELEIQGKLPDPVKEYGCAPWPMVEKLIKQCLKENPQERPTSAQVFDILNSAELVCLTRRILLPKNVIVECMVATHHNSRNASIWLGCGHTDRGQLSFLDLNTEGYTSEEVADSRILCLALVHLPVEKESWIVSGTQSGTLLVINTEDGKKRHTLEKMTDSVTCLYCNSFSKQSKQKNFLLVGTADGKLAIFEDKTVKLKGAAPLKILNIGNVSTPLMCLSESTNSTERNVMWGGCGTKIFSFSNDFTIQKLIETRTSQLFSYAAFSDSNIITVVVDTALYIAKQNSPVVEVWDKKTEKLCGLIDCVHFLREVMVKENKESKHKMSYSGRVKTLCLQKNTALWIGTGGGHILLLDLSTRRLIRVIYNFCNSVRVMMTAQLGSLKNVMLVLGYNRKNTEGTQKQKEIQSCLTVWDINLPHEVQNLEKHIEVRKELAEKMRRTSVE

Usually IC50 stands for the concentration that inhibits the measured activity by half. On to `Cc1c2c(nn1C1CC(N3C[C@@H]4C[C@H]3CO4)C1)OCCCNc1nc(ncc1Cl)N2` (stereo partly drawn) [E311, 14-Chloro-4-methyl-5-{3-[(1S,4S)-2-oxa-5-azabicyclo[2.2.1]heptan-5-yl]-cyclobutyl}-8-oxa-2,5,6,12,16,17-hexaazatricyclo [11.3.1.0^3,7]heptadeca-1(16),3,6,13(17),14-pentaene], for which the IC50 in experiment [1] and in experiment [2] was at most 100 nM throughout.

For `Cc1c2c(nn1C(C)(C)C(=O)O)OCCCNc1nc(ncc1Cl)N2` [E189, 2-{14-Chloro-4-methyl-8-oxa-2,5,6,12,16,17-hexaazatricyclo [11.3.1.0^3,7]heptadeca-1(16),3,6,13(17),14-pentaen-5-yl}-2-methylpropanoic acid], the results for the IC50 in experiment [1] and in experiment [2] were at most 10000 nM and over 10000 nM, respectively.

Consider `Cc1c2c(nn1C1CCOCC1)OCC(F)C(CF)Nc1nc(ncc1Cl)N2` (centres unmarked) [E391, 14-Chloro-10-fluoro-11-(fluoromethyl)-4-methyl-5-(oxan-4-yl)-8-oxa-2,5,6,12,16,17-hexaazatricyclo[11.3.1.0^3,7]heptadeca-1(16),3,6,13(17),14-pentaene], for which the half-inhibitory concentration (IC50) in experiment [1] and in experiment [2] was at most 100 nM in each case.

In the case of `Cc1c2c(nn1C1CCOCC1)OCC(F)(F)CNc1nc(ncc1Cl)N2` [E377, 14-Chloro-10,10-difluoro-4-methyl-5-(oxan-4-yl)-8-oxa-2,5,6,12,16,17-hexaazatricyclo[11.3.1.0^3,7]heptadeca-1(16),3,6,13(17),14-pentaene], the IC50 in experiment [1] and in experiment [2] was at most 100 nM each time.

Consider `COC1CNc2nc(ncc2Cl)Nc2c(nn(CC3CCOCC3)c2C)OC1` (single isomer, unassigned) [E274, 14-Chloro-10-methoxy-4-methyl-5-(oxan-4-ylmethyl)-8-oxa-2,5,6,12,16,17-hexaazatricyclo[11.3.1.0^3,7] heptadeca-1(16),3,6,13(17),14-pentaene], for which the IC50 in experiment [1] and in experiment [2] was at most 100 nM each time.

As for `COC1CNc2nc(ncc2Cl)Nc2c(nn(C3CCOCC3)c2C)OC1` (single isomer, unassigned) [E3, 14-chloro-10-methoxy-4-methyl-5-(oxan-4-yl)-8-oxa-2,5,6,12,16,17-hexaazatricyclo [11.3.1.0^3,7]heptadeca-1(16),3,6,13(17),14-pentaene], the IC50 in experiment [1] and in experiment [2] was at most 100 nM each time.

As for `Cc1c2c(nn1C1CC(O)C1)OCC[C@@H](C)Nc1nc(ncc1Cl)N2` (stereo partly drawn) [E375, 3-[(11R)-14-Chloro-4,11-dimethyl-8-oxa-2,5,6,12,16,17-hexaazatricyclo[11.3.1.0^3,7]heptadeca-1(16),3,6,13(17),14-pentaen-5-yl]cyclobutan-1-ol], the IC50 in experiment [1] and in experiment [2] was at most 100 nM each time.

Regarding `Cc1c2c(nn1C(=O)C1CCOCC1)OCCCNc1nc(ncc1Cl)N2` [E363, 14-Chloro-4-methyl-5-(oxane-4-carbonyl)-8-oxa-2,5,6,12,16,17-hexaazatricyclo[11.3.1.0^3,7]heptadeca-1(16),3,6,13(17),14-pentaene], the IC50 in experiment [1] is at most 10000 nM; in experiment [2], at most 100 nM.

In the case of `COCC1CCOc2nn(C3CCOCC3F)c(C)c2Nc2ncc(Cl)c(n2)N1` (single isomer, unassigned) [E351, 14-Chloro-5-(3-fluorooxan-4-yl)-11-(methoxymethyl)-4-methyl-8-oxa-2,5,6,12,16,17-hexaazatricyclo [11.3. 1.0^3,7]heptadeca-1(16),3,6,13(17),14-pentaene], the 50% inhibitory concentration (IC50) in experiment [1] and in experiment [2] was at most 100 nM throughout.

On to `FC1(F)CN(C2COC2)CCC1n1nc2c(c1Cl)Nc1ncc(Cl)c(n1)NCCCO2` (centres unmarked) [E446, 4,14-Dichloro-5[3,3-difluoro-1-(oxetan-3-yl)piperidin-4-yl]-8-oxa-2,5,6,12,16,17-hexaazatricyclo[11.3.1.0^3,7]heptadeca-1(16),3,6,13(17),14-pentaene], for which the IC50 in experiment [1] and in experiment [2] was at most 100 nM each time.

In the case of `Cc1[nH]nc2c1Nc1ncc(Br)c(n1)NCCCO2` [E432, 14-Bromo-4-methyl-8-oxa-2,5,6,12,16,17-hexaazatricyclo[11.3.1.0^3,7]heptadeca-1(16),3,6,13(17),14-pentaene], the concentration for half-maximal inhibition (IC50) in experiment [1] and in experiment [2] was at most 100 nM throughout.

With `Cc1c2c(nn1C1CCOC(C)C1)OCCC(C(F)F)Nc1nc(ncc1Cl)N2` (centres unmarked) [E386, 14-Chloro-11-(difluoromethyl)-4-methyl-5-(2-methyloxan-4-yl)-8-oxa-2,5,6,12,16,17-hexaazatricyclo[11.3.1.0^3,7]heptadeca-1(16),3,6,13(17),14-pentaene], the IC50 in experiment [1] and in experiment [2] was at most 100 nM throughout.

With `Cc1c2c(nn1C1CC(N3C[C@H]4C[C@@H]3CO4)C1)OCC[C@@H](C)Nc1nc(ncc1Cl)N2` (stereo partly drawn) [E317, (11R)-14-Chloro-4,11-dimethyl-5-{3-[(1R,4R)-2-oxa-5-azabicycle [2.2.1]heptan-5-yl]cyclobutyl}-8-oxa-2,5,6,12,16,17-hexaaza tricyclo[11.3.1.0^3,7]heptadeca-1(16),3,6,13(17),14-pentaene], the IC50 in experiment [1] and in experiment [2] was at most 100 nM throughout.

For the molecule `Cc1c2c(nn1C1CCOCC1)OCCCOc1nc(ncc1C(F)(F)F)N2` [E117, 4-Methyl-5-(oxan-4-yl)-14-(trifluoromethyl)-8,12-dioxa-2,5,6, 16,17-pentaazatricyclo[11.3.1.0^3,7]heptadeca-1(16),3,6,13(17),14-pentaene], the IC50 in experiment [1] and in experiment [2] was at most 100 nM in each case.

As for `FC(F)(F)c1cnc2nc1NCCCOc1nn(C3CCCOC3)cc1N2` (centres unmarked) [E130, 5-(Oxan-3-yl)-14-(trifluoromethyl)-8-oxa-2,5,6,12,16,17-hexaaza tricyclo[11.3.1.0^3,7]heptadeca-1(16),3,6,13(17),14-pentaene], the half-maximal inhibitory concentration (IC50) in experiment [1] and in experiment [2] was at most 100 nM in each case.

Consider `Cc1c2c(nn1C1CC(O)C1)OCC[C@@H](C)N(C)c1nc(ncc1Cl)N2` (stereo partly drawn) [E376, 3-[(11R)-14-Chloro-4,11,12-trimethyl-8-oxa-2,5,6,12,16,17-hexaazatricyclo[11.3.1.0^3,7]heptadeca-1(16),3,6,13(17),14-pentaen-5-yl] cyclobutan-1-ol], for which the IC50 in experiment [1] and in experiment [2] was at most 100 nM in each case.

Take `Cc1c2c(nn1C1COC1)OCCCNc1nc(ncc1Br)N2` [E66, 14-Bromo-4-methyl-5-(oxetan-3-yl)-8-oxa-2,5,6,12,16,17-hexaazatricyclo[11.3.1.0^3,7]heptadeca-1(16),3,6,13(17),14-pentaene]: the IC50 in experiment [1] and in experiment [2] was at most 100 nM each time.

`Cc1c2c(nn1C1CCC(N3C[C@H]4C[C@@H]3CO4)CC1)OCCCNc1nc(ncc1Cl)N2` (single isomer, unassigned) [E48]: the IC50 in experiment [1] and in experiment [2] was at most 100 nM each time.

With `Cc1c2c(nn1C1CC3CCC(C1)O3)OCCCNc1nc(ncc1Cl)N2` (single isomer, unassigned) [E243, 14-Chloro-4-methyl-5-{8-oxabicyclo[3.2.1]octan-3-yl}-8-oxa-2,5,6,12,16,17-hexaazatricyclo[11.3.1.0^3,7] heptadeca-1(16),3,6,13(17),14-pentaene], the IC50 in experiment [1] and in experiment [2] was at most 100 nM throughout.
